Experiments:
Format in all cases: biochemical
[1] = target: T1, MMP-1 (Homo sapiens, UniProt P03956); experiment: In vitro MMP-1 inhibition test
T1 construct: purchased R&D Systems 901-MP
T1 sequence (P03956 100-469): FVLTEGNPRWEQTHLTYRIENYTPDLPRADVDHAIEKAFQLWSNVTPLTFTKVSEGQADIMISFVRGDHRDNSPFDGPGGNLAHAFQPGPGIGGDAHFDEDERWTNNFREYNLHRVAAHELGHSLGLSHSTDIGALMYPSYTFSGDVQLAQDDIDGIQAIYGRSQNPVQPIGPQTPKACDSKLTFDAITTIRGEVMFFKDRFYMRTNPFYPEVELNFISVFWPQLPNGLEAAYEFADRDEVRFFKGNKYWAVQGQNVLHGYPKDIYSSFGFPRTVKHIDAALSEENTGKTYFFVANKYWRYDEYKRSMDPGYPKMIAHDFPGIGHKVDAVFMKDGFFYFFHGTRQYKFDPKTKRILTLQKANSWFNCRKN
Text: (§1) The MMP-mediated amidolytic cleavage of a suitable peptide substrate leads to an increase in fluorescent light here too. The signal intensity of the fluorescent light is directly proportional to the enzyme activity. The active concentration of a test compound at which half the enzyme is inhibited (50% signal intensity of the fluorescent light) is reported as the IC50 value.
(§2) Recombinant MMP-1 (from R&D Systems, 901-MP) is chemically activated in accordance with the manufacturer's instructions using APMA. 1 μl of the test compound to be analysed (as a solution in DMSO, suitable concentrations, for example, 1 nM to 30 μM) is pipetted into 24 μl of activated enzyme (final concentration, for example, 2 nM) in reaction buffer (50 mM Tris/HCl pH 7.5, 10 mM CaCl2, 150 mM NaCl, 0.05% Brij®-35) in a white 384-hole microtiter plate (MTP). The enzymatic reaction is started by adding the intramolecularly quenched Mca-Pro-Leu-Gly-Leu-Dpa(Dnp)-Ala-Arg-NH2 substrate (final concentration, for example, 10 μM; R&D Systems, ES-001), so as to result in a total test volume of 50 μl. The course of the MMP-1 reaction is measured by measuring the fluorescence intensity (excitation 320 nm, emission 410 nm) over a suitable period of time (for example over 120 min at a temperature of 32° C.).

[2] = target: T2, MMP-9 (Homo sapiens, UniProt P14780); experiment: In vitro MMP-9 inhibition test
T2 construct: purchased R&D Systems 911-MP
T2 sequence (P14780 107-707 limits assumed): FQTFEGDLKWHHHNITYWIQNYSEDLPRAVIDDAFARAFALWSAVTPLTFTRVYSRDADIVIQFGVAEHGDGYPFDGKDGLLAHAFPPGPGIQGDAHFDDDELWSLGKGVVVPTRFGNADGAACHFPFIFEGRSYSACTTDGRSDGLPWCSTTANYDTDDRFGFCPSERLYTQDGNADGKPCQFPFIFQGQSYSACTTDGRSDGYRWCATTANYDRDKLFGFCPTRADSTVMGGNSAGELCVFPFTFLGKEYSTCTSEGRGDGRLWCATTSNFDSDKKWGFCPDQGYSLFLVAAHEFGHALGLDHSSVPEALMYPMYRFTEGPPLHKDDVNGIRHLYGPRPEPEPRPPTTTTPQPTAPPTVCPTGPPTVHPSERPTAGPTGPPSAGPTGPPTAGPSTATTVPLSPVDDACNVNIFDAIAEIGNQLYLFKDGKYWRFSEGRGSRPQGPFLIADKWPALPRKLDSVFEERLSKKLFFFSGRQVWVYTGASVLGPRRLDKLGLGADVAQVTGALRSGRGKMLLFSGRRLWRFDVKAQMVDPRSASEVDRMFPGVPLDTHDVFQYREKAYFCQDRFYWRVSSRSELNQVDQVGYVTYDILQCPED
Text: as §1
as §2, with “Recombinant MMP-9” for “Recombinant MMP-1”, “Systems, 911-MP)” for “Systems, 901-MP)”, “example, 0.1” for “example, 2”, “the MMP-9” for “the MMP-1”

[3] = target: T3, MMP-14 (Homo sapiens, UniProt P50281); experiment: In vitro MMP-14 inhibition test
T3 construct: purchased R&D Systems 918-MP
Text: as §1
Recombinant MMP-14 (from R&D Systems, 918-MP) is enzymatically activated in accordance with the manufacturer's instructions using recombinant furin (from R&D Systems, 1503-SE). 1 μl of the test compound to be analysed (as a solution in DMSO, suitable concentrations e.g. 1 nM to 30 μM) is pipetted into 24 μl of activated enzyme (final concentration e.g. 0.5 nM) in reaction buffer (50 mM Tris/HCl pH 7.5, 10 mM CaCl2, 150 mM NaCl, 0.05% Brij®-35) in a white 384-hole microtiter plate (MTP). The enzymatic reaction is started by adding the intramolecularly quenched Mca-Lys-Pro-Leu-Gly-Leu-Dpa(Dnp)-Ala-Arg-NH2 substrate (final concentration, for example, 5 μM; R&D Systems, ES-010), so as to result in a total test volume of 50 The course of the MMP-14 reaction is measured by measuring the fluorescence intensity (excitation 320 nm, emission 410 nm) over a suitable period of time (for example over 120 min at a temperature of 32° C.).

[4] = target: T4, human macrophage elastase (HME/hMMP-12) (Homo sapiens, UniProt P39900); experiment: In vitro HME inhibition test (standard or high-sensitivity); conditions: in some cases mean values
T4 construct: 0.5 nM HME; purchased R&D Systems 917-MP
T4 sequence (P39900 106-470): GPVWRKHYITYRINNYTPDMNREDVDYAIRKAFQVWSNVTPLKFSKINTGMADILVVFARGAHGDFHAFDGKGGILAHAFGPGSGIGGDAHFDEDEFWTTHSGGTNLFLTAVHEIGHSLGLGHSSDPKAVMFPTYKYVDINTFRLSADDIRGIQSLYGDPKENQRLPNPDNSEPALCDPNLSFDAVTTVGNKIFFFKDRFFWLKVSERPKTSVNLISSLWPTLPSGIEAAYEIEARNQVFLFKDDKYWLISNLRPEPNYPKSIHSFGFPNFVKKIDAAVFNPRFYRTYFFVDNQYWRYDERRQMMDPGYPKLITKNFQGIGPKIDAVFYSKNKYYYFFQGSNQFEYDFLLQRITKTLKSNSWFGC
Outline: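 Fluorogenic assay: 0.5 nM autoactivated HME with 5 µM Mca-Pro-Leu-Gly-Leu-Glu-Glu-Ala-Dap(Dnp)-NH2 in HEPES pH 7.4 buffer (NaCl, CaCl2, ZnCl2, EDTA, Brij), 2 h at 37 °C; ex 323/em 393 nm. IC50 from fluorescence versus concentration. High-sensitivity format: ~0.05 nM enzyme, ~16 h incubation.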

IC50 [1]	IC50 [2]	IC50 [3]	IC50 [4]	Structure (SMILES)
5200 nM	4.7 nM	24 nM	0.052 nM	O=C(O)[C@H]1[C@H](Cn2nnc3ccccc3c2=O)CC[C@@H]1C(=O)c1ccc(OCc2ccc(F)cc2)cc1 (racemic) [Example 1, (+/−)-(1RS,2RS,5SR)-2-{4-[(4-Fluorobenzyl)oxy]benzoyl}-5-[(4-oxo-1,2,3-benzotriazin-3(4H)-yl)methyl]cyclopentanecarboxylic acid]
> 40000 nM	480 nM	480 nM	0.51 nM	O=C(O)[C@H]1[C@H](Cn2nnc3ccccc3c2=O)CC[C@@H]1C(=O)c1ccc(OCc2cccc(Cl)c2)cc1 (racemic) [Example 2, (+/−)-(1RS,2RS,5SR)-2-{4-[(3-Chlorobenzyl)oxy]benzoyl}-5-[(4-oxo-1,2,3-benzotriazin-3(4H)-yl)methyl]cyclopentanecarboxylic acid]
16000 nM	900 nM	700 nM	0.055 nM	O=C(O)[C@H]1[C@H](Cn2nnc3ccccc3c2=O)CC[C@@H]1C(=O)c1ccc(OCc2ccc(Cl)c(Cl)c2)cc1 (racemic) [Example 3, (+/−)-(1RS,2RS,5SR)-2-{4-[(3,4-Dichlorobenzyl)oxy]benzoyl}-5-[(4-oxo-1,2,3-benzotriazin-3(4H)-yl)methyl]cyclopentanecarboxylic acid]
28000 nM	130 nM	33 nM	0.049 nM	O=C(O)[C@H]1[C@H](Cn2nnc3ccccc3c2=O)CC[C@@H]1C(=O)c1ccc(OCC2CCCC2)cc1 (racemic) [Example 4, (+/−)-(1RS,2RS,5SR)-2-[4-(Cyclopentylmethoxy)benzoyl]-5-[(4-oxo-1,2,3-benzotriazin-3(4H)-yl)methyl]cyclopentanecarboxylic acid]
> 40000 nM	960 nM	620 nM	0.07 nM	O=C(O)[C@H]1[C@H](Cn2nnc3ccccc3c2=O)CC[C@@H]1C(=O)c1ccc(OCCC2CCCCC2)cc1 (racemic) [Example 5, (+/−)-(1RS,2RS,5SR)-2-[4-(2-Cyclohexylethoxy)benzoyl]-5-[(4-oxo-1,2,3-benzotriazin-3(4H)-yl)methyl]cyclopentanecarboxylic acid]
3800 nM	18 nM	150 nM	0.014 nM	O=C(O)[C@H]1[C@H](Cn2nnc3ccc(C(F)(F)F)cc3c2=O)CC[C@@H]1C(=O)c1ccc(OCc2ccccc2)cc1 (racemic) [Example 11, (+/−)-(1RS,2RS,5SR)-2-[4-(Benzyloxy)benzoyl]-5-{[4-oxo-6-(trifluoromethyl)-1,2,3-benzotriazin-3(4H)-yl]methyl}cyclopentanecarboxylic acid]
2500 nM	5.9 nM	78 nM	0.019 nM	O=C(O)[C@H]1[C@H](Cn2nnc3ccc(C(F)(F)F)cc3c2=O)CC[C@@H]1C(=O)c1ccc(OCc2ccc(F)cc2)cc1 (racemic) [Example 12, (+/−)-(1RS,2RS,5SR)-2-{4-[(4-Fluorobenzyl)oxy]benzoyl}-5-{[4-oxo-6-(trifluoromethyl)-1,2,3-benzotriazin-3(4H)-yl]methyl}cyclopentanecarboxylic acid]
8300 nM	230 nM	180 nM	0.05 nM	Cc1cccc(COc2ccc(C(=O)[C@H]3CC[C@@H](Cn4nnc5ccc(C(F)(F)F)cc5c4=O)[C@@H]3C(=O)O)cc2)c1 (racemic) [Example 15, (+/−)-(1RS,2RS,5SR)-2-{4-[(3-Methylbenzyl)oxy]benzoyl}-5-{[4-oxo-6-(trifluoromethyl)-1,2,3-benzotriazin-3(4H)-yl]methyl}cyclopentanecarboxylic acid]
> 40000 nM	940 nM	1000 nM	0.11 nM	O=C(O)[C@H]1[C@H](Cn2nnc3ccc(C(F)(F)F)cc3c2=O)CC[C@@H]1C(=O)c1ccc(OCc2cccc(C(F)(F)F)c2)cc1 (racemic) [Example 18, (+/−)-(1RS,2SR,5RS)-2-{[4-Oxo-6-(trifluoromethyl)-1,2,3-benzotriazin-3(4H)-yl]methyl}-5-(4-{[3-(trifluoromethyl)benzyl]oxy}benzoyl)cyclopentanecarboxylic acid]
> 40000 nM	780 nM	6400 nM	0.044 nM	O=C(O)[C@H]1[C@H](Cn2nnc3ccc(C(F)(F)F)cc3c2=O)CC[C@@H]1C(=O)c1ccc(OCCCc2ccccc2)cc1 (racemic) [Example 39, (+/−)-(1RS,2SR,5RS)-2-{[4-Oxo-6-(trifluoromethyl)-1,2,3-benzotriazin-3(4H)-yl]methyl}-5-[4-(3-phenylpropoxy)benzoyl]cyclopentanecarboxylic acid]
3800 nM	170 nM	460 nM	0.048 nM	O=C(O)[C@H]1[C@H](Cn2nnc3ccc(C(F)(F)F)cc3c2=O)CC[C@@H]1C(=O)c1ccc(OCC2CCCCC2)cc1 (racemic) [Example 40, (+/−)-(1RS,2RS,5SR)-2-[4-(Cyclohexylmethoxy)benzoyl]-5-{[4-oxo-6-(trifluoromethyl)-1,2,3-benzotriazin-3(4H)-yl]methyl}cyclopentanecarboxylic acid]
> 40000 nM	4900 nM	> 40000 nM	0.2 nM	O=C(O)[C@H]1[C@H](Cn2nnc3ccc(C(F)(F)F)cc3c2=O)CC[C@@H]1C(=O)c1ccc(OCCCC2CCCCC2)cc1 (racemic) [Example 56, (+/−)-(1RS,2RS,5SR)-2-{4-(3-Cyclohexylpropoxy)benzoyl}-5-{[4-oxo-6-(trifluoromethyl)-1,2,3-benzotriazin-3(4H)-yl]methyl}cyclopentanecarboxylic acid]
15000 nM	3200 nM	8700 nM	0.25 nM	O=C(O)[C@H]1[C@H](Cn2nnc3ccc(C(F)(F)F)cc3c2=O)CC[C@@H]1C(=O)c1ccc(SCc2ccc(Cl)c(Cl)c2)cc1 (racemic) [Example 79, (+/−)-(1RS,2RS,5SR)-2-{4-[(3,4-Dichlorobenzyl)sulphanyl]benzoyl}-5-{[4-oxo-6-(trifluoromethyl)-1,2,3-benzotriazin-3(4H)-yl]methyl}cyclopentanecarboxylic acid]
2500 nM	55 nM	440 nM	0.023 nM	CCCCCSc1ccc(C(=O)[C@H]2CC[C@@H](Cn3nnc4ccc(C(F)(F)F)cc4c3=O)[C@@H]2C(=O)O)cc1 (racemic) [Example 88, (+/−)-(1RS,2SR,5RS)-2-{[4-Oxo-6-(trifluoromethyl)-1,2,3-benzotriazin-3(4H)-yl]methyl}-5-[4-(pentylsulphanyl)benzoyl]cyclopentanecarboxylic acid]
